Reference: patent publication US7939541B2, “Intermediates and a process employing the intermediates for the preparation of (3-trifluoromethylsulfonyl)-N-[4-methyl-3-(4-pyridin-3yl-pyrimidin-2ylamino)-phenyl]-benzamide” (Natco Pharma Limited, priority 2004, dated 2011)

Legend:
[1] = system: Baf3 murine leukemia cells M351T; test: Blast cell count in nude mice implanted with Baf3 M351T cells; assay type: in vivo; conditions: Baf3M351T; Imatinib 10 mg/kg, AN019 20 mg/kg, AN024 20 mg/kg, oral gavage or ip from day 15; day 42
From the text: (§1) Blood smears were obtained via the tail vein or via the femoral vein every 6th day and blast cells counted and graphically represented.
(§2) Abdominal swelling and decrease in activity was monitored daily, blood smear taken via the tail vein or the femoral vein every 6th day and H&E stained as per standard protocols. 42 days after implantation, mice were sacrificed and spleens harvested.
(§3) Blood from tail vein or the femoral vein was taken every 6th day from Baf3 cell implanted mice until day 42.
(§4) Nude mice were intraperitoneally implanted with Baf3 mutant cells (wt, T315I, M351T or E255K). […] Blood was drawn from the femoral vein or tail vein every 6th day and blast cell count determined and graphically represented.

[2] = system: Baf3 murine leukemia cells E255K; test: Blast cell count in nude mice implanted with Baf3 E255K cells; assay type: in vivo; conditions: Baf3E255K (printed E225K); Imatinib 10 mg/kg, AN019 20 mg/kg, AN024 20 mg/kg, oral gavage or ip from day 15; day 42
From the text: as §1, §2, §3, §4

K562luc cells = test: Determination of drug temporal penetrance (Tp); assay type: in vivo, nude mice; conditions: daily ip from day 15 to day 35, imaged till day 45; AN019 20 mg/kg, AN024 20 mg/kg, Imatinib 10 mg/kg
Protocol: The temporal penetrance was calculated applying the following equation, […].
P=photon counts at day ‘a’, day ‘ter’, or day ‘b’ where ‘a’ is the day when drug treatment was stopped and ‘ter’ is the day when the experiment was terminated and ‘b’ is the day where P is minimum after day a but before day ‘ter’.
n=number of animals alive when P was measured.
The animals were imaged at 6 day intervals post transplantation. […] Drug treatment was stopped on day 35 and animals were imaged till day 45, and calculated as described in methods.

[3] = system: AKT, ERK and Pi3k in 4910 glioma cells; test: Western blot analysis, 4910; assay type: cell-based, human; conditions: 24 h
Protocol: (§5) Western blot analysis of 4910, 5310 and U87 glioma cells and MDAMB231 and ZR71 breast cancer cells in the presence of specified concentrations of compounds were assessed as per standard protocols. Cells were treated with AN019, AN024 or Temozolomide at the specified concentrations. 24 h after treatment, cells were collected and cell lysates extracted. Equal quantities of proteins were fractionated by SDS-PAGE. The fractionated proteins were blotted on to nylon membranes and immunoprobed for AKT, ERK and Pi3k. Breast cancer cell protein isolates were additionally immunoprobed for EGFR, ErbB1, ErbB2 and ErbB3.

[4] = system: pAKT and pERK in glioma and breast cancer cells; test: Western blot analysis of pAKT and pERK, cell line not stated; assay type: cell-based; conditions: both with and without radiation
Protocol: as §5

K562 = test: ED50 and therapeutic index in leukemic mice (K562); assay type: in vivo; conditions: Mus musculus, K562, po, read-out: ED50 (po) Mice

SMILES: Cc1ccc(NC(=O)c2cccc(S(=O)(=O)C(F)(F)F)c2)cc1Nc1nccc(-c2cccnc2)n1 [AN024, (3-trifluoromethylsulfonyl)-N-[4-methyl-3-(4-pyridin-3yl-pyrimidin-2ylamino)-phenyl]-benzamide]
- blast cell count in blood smears [1]: significant decrease in blast cell count
- blast cell count in blood smears [2]: significant decrease in blast cell count
- temporal penetrance (Tp) (K562luc cells): 2.4
- AKT levels ([3]; 4910, after radiation): decrease in AKT levels was enhanced after radiation
- AKT levels ([3]; 4910, without radiation): decrease in AKT levels
- pERK levels [4]: reduction on pERK levels but to a lesser extent than AN019
- ED50 (K562): 10 mg/kg
